Experimental data as given in PMC9822135, “Chemical Constituents from the Leaves of Ligustrum robustum and Their Bioactivities” (Molecules, 2023).
Like-named read-outs stand apart in the source and are kept apart here. Values belong to the compound of their own block, whether it stands above or below them.

Legend:
[1] = system: α-amylase; test: α-amylase inhibitory activity assay (starch, DNS reagent); format: biochemical; conditions: mean ± SD (n = 3)
Procedure: S1.3. Determination of α-amylase inhibitory activity
Phosphate buffer (20 mM, pH 6.9, containing 6 mM NaCl) was used as the […]
µL, 1%, w/v) were mixed and incubated in a 96-well microplate at 37 °C for 10 min.
Then, α-amylase solution (50 µL, 0.2 U/mL) was added and the compound was incubated at 37 °C for an additional 10 min. The reaction was stopped by addition of […]
microplate was immediately heated in 95 °C water bath for 10 min. When the reaction solution cooled to room temperature, allsamples were diluted by adding distilled water (50 µL), and then their absorbance was measured using a microplate reader at […]
starch solution) at 540 nm, thus the inhibitory activity was calculated as (Acontrol-Asample)/Acontrol×100%, in which Asample was the absorbance of the sample and Acontrol was the absorbance of the phosphate buffer control without test samples. Acarbose was used as the positive control.

[2] = ABTS radical scavenging assay; conditions: mean ± SD (n = 3)
[3] = molecular target: fatty acid synthase (FAS) (Gallus gallus, UniProt P12276); test: FAS inhibitory activity assay (NADPH absorbance at 340 nm)
Sequence of fatty acid synthase (FAS) (P12276 2-2512 limits assumed): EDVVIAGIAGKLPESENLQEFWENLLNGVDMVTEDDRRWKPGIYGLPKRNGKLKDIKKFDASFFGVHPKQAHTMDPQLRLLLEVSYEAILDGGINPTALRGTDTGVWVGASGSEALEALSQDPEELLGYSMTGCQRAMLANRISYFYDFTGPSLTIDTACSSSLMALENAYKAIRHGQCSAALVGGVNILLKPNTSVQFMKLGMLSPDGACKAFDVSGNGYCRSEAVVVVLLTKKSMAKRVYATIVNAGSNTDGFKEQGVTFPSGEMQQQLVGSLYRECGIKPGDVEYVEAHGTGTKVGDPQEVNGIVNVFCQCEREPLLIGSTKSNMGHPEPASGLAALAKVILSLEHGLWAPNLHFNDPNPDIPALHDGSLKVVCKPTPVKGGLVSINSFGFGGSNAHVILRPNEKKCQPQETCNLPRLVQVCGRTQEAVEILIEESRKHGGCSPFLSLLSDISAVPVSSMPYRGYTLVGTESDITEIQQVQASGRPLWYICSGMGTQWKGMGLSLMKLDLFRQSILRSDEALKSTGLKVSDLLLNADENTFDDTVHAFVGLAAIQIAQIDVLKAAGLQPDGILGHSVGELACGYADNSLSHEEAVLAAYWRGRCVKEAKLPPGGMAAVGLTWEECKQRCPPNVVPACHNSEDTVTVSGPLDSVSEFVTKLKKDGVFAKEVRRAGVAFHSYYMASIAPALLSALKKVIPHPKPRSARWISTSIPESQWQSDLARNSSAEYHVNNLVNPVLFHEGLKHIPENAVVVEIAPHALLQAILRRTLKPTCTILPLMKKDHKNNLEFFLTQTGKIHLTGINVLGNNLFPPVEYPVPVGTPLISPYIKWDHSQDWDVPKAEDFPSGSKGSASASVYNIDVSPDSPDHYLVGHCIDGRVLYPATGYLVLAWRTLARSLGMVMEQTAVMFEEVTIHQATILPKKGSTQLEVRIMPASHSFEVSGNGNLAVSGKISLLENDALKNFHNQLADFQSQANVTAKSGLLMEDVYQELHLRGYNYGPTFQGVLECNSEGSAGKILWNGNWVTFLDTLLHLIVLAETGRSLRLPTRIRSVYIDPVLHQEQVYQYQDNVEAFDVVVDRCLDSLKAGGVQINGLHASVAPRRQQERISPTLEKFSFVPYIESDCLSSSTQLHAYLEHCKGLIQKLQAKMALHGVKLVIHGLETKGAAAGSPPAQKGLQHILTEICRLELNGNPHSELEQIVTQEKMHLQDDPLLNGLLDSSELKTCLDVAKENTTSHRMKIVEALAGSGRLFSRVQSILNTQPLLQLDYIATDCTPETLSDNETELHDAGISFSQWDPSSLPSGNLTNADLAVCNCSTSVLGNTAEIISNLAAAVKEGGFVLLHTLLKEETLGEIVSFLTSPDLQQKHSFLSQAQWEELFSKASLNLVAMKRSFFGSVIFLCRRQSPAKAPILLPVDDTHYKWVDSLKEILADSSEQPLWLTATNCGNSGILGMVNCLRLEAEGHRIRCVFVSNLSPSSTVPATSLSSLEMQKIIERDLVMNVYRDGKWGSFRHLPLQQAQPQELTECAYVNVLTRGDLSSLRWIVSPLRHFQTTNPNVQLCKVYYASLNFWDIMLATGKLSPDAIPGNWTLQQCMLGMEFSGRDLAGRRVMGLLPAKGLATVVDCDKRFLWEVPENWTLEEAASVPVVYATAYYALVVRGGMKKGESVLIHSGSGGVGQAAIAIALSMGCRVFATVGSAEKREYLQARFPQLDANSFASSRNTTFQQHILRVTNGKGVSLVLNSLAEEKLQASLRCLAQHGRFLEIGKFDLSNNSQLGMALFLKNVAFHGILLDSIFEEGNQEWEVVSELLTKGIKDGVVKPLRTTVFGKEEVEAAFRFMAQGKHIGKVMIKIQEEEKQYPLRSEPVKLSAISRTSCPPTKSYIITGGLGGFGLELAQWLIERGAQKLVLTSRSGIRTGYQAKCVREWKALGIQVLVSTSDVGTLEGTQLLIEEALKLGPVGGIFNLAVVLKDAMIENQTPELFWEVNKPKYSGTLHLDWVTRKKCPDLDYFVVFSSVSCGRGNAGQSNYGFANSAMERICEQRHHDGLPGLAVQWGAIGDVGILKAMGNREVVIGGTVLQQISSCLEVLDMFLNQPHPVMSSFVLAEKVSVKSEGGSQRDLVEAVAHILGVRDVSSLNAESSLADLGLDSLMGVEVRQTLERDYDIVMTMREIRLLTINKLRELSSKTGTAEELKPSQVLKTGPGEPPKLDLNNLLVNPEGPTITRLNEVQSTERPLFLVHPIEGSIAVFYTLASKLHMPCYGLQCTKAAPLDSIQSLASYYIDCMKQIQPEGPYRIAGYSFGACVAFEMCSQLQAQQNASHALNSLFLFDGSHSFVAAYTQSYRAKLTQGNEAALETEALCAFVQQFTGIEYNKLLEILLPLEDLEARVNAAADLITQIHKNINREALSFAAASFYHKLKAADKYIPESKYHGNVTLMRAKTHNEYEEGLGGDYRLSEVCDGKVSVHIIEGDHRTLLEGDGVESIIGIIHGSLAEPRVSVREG
Procedure: Determination of FAS inhibitory activity
diluted with potassium phosphate buffer (0.1 M, pH 7.0). Sample solution (100 L, 20-2000 μM, 37 °C) and FAS substrates (1.8 mL, 37 °C) were mixed in a cuvette, and then FAS solution (100 L, 37 °C, isolated from chicken liver and kept in ice-bath before use) was added. The absorbance of reaction compound was monitored by a
UV-vis spectrophotometer at 340 nm in 1 min. The inhibitory effect was calculated by the following equation: FAS inhibition (%) = (Acontrol- Asample)/Acontrol×100%, where Acontrolrepresented the FAS activity in the control group (phosphate buffer instead of sample solution), Asamplerepresented the FAS activity in the sample groups. The FAS activity was calculated as (A0 - A1)/1 min, in which A0 was the absorbance of the
reaction compound when the FAS was added, and A1 was the absorbance of the
reaction compound after reaction 1 min. Orlistat was used as the positive control.
FAS substrates: 0.1 M potassium phosphate buffer (pH 7.0), 1 mM ethylene-diaminetetraacetic acid (EDTA), 1 mM dithiothreitol, 3 M acetyl-coenzyme A, 10 M methylmalonyl coenzyme A, 35 M NADPH.

[4] = DPPH radical scavenging assay; conditions: mean ± SD (n = 3), NA = no activity
Procedure: S1.4. DPPH radical scavenging assay
The DPPH radical scavenging assay was used to evaluate the antioxidant activity of compounds 1-10. In a 96-well microplate, 100 µL of DPPH solution (200 µM in ethanol) was added to 100 µL sample in ethanol at graded concentrations ranging from 7 to 500 µM. The compound was incubated in the dark at room temperature for […]

[5] = system: α-glucosidase; test: α-glucosidase inhibitory activity assay (pNPG substrate); format: biochemical, yeast; conditions: for α-Glucosidase Inhibition at 0.1 mM: mean ± SD (n = 3), NA = no activity; for α-glucosidase inhibitory activity (in words): compared with positive control acarbose
Procedure: S1. Determination of bioactivities […]
S1.2. Determination of α-glucosidase inhibitory activity […]
diluted with phosphate buffer (0.1 M, pH 6.8). […]
and 4-nitrophenyl α-D-glucopyranoside (pNPG) solution (50 µL, 5 mM) were mixed
(1 picture or pasted object on this page, not shown here) […]
and incubated in a 96-well microplate at37 °C for 5 min. α-Glucosidase from yeast (50 µL, 0.2 U/mL) was added and incubated at 37 °C for another 30 min. Finally, 50 µL of Na2CO3 (1M) was added to terminate the reaction. The absorbance of compound was measured using a microplate reader at a wavelength 405 nm. The background absorbance (phosphate buffer instead of substrate pNPG) of all samples […]
calculated by the following equation: α-glucosidase inhibition (%) = (Acontrol-Asample)/Acontrol×100%, where Acontrolrepresented the absorbance of phosphate buffer control without testsamples, Asample represented the absorbance of test samples.
Acarbose was used as the positive control. […]

Compound: CC/C=C/CCO[C@@H]1O[C@H](COC(=O)C=Cc2ccc(O)cc2)[C@@H](O)[C@H](O[C@@H]2O[C@@H](C)[C@H](O)[C@@H](O)[C@H]2O)[C@H]1O [Compound 1]
- α-Amylase Inhibition at 0.1 mM [1]: 27.9 ± 6.4 bc %
- IC50 [2]: 5.65 ± 0.19 µM

Compound: C=C(C)CO[C@@H]1O[C@H](COC(=O)C=Cc2ccc(O)cc2)[C@@H](O)[C@H](O[C@@H]2O[C@@H](C)[C@H](O)[C@@H](O)[C@H]2O)[C@H]1O [Compound 2]
- α-Amylase Inhibition at 0.1 mM [1]: 24.0 ± 1.5 bc %
- IC50 [2]: 103 ± 4 µM
- IC50 ([3]; read-out: FAS IC50, mean ± SD (n = 3), NA = no activity, FAS isolated from chicken liver): 4.1 ± 0.12 µM

Compound: C[C@@H]1O[C@@H](O[C@H]2[C@H](O)[C@@H](COC(=O)C=Cc3ccc(O)cc3)OC(O)[C@@H]2O)[C@H](O)[C@H](O)[C@H]1O (some centres unmarked) [Compound 3]
- α-Amylase Inhibition at 0.1 mM [1]: 29.8 ± 1.8 bc %
- IC50 [4]: > 250 µM
- IC50 [2]: 12.04 ± 0.08 µM
- IC50 [3]: 6.25 ± 0.2 µM

Compound: CC1OC(OC2C(O)C(O)OC(CO)C2OC(=O)C=Cc2ccc(O)cc2)C(O)C(O)C1O (centres unmarked) [Compound 4]
- α-Amylase Inhibition at 0.1 mM [1]: 25.6 ± 1.0 bc %
- IC50 [2]: 11.2 ± 0.4 µM
- IC50 [3]: 10.5 ± 0.32 µM

Compound: C[C@@H]1O[C@@H](O[C@@H]2[C@@H](O)[C@@H](O)[C@H](O[C@H]3[C@H](O)[C@@H](COC(=O)C=Cc4ccc(O)cc4)OC(O)[C@@H]3O)O[C@H]2C)[C@H](O)[C@H](O)[C@H]1O (some centres unmarked) [Compound 5]
- α-Amylase Inhibition at 0.1 mM [1]: 26.5 ± 4.0 bc %
- IC50 [4]: > 250 µM
- IC50 [2]: 15.5 ± 0.36 µM
- IC50 [3]: 9.75 ± 0.24 µM

Compound: C[C@@H]1O[C@@H](O[C@H]2[C@H](OC(=O)/C=C/c3ccc(O)c(O)c3)[C@@H](CO)OC(O)[C@@H]2O)[C@H](O)[C@H](O)[C@H]1O (stereo partly drawn) [Compound 6, 3-O-(α-L-rhamnopyranosyl)-4-O-(trans-caffeoyl)-D-glucopyranose]
- α-Amylase Inhibition at 0.1 mM [1]: 23.0 ± 0.7 c %
- IC50 [4]: 46.7 ± 1.58 µM
- IC50 [2]: 17 ± 0.45 µM

Compound: O=c1c(O[C@@H]2O[C@H](CO)[C@@H](O)[C@H](O)[C@H]2O)c(-c2ccc(O)cc2)oc2cc(O[C@@H]3O[C@H](CO)[C@@H](O)[C@H](O)[C@H]3O)cc(O)c12 [Compound 7, kaempferol 3,7-diglucoside]
- α-Glucosidase Inhibition at 0.1 mM [5]: 15.6 ± 0.9 c %
- α-glucosidase inhibitory activity (in words) [5]: moderate and weaker than acarbose
- α-Amylase Inhibition at 0.1 mM [1]: 31.8 ± 0.5 b %
- IC50 [2]: 9.34 ± 0.04 µM
- IC50 [3]: 8.1 ± 0.37 µM

Compound: COc1cc([C@H]2c3cc(O[C@@H]4O[C@H](CO)[C@@H](O)[C@H](O)[C@H]4O)c(OC)cc3C[C@@](O)(CO)[C@@H]2CO)ccc1O [Compound 8, (+)-cycloolivil 6-O-β-D-glucopyranoside]
- α-Amylase Inhibition at 0.1 mM [1]: 28.5 ± 2.7 bc %
- IC50 [4]: > 250 µM
- IC50 [2]: 29.1 ± 1.11 µM
- IC50 [3]: 8.01 ± 0.26 µM

Compound: COC(=O)C=Cc1ccc(O)cc1 [Compound 9]
- α-Glucosidase Inhibition at 0.1 mM [5]: 33.8 ± 2.9 b %
- α-glucosidase inhibitory activity (in words) [5]: moderate and weaker than acarbose
- α-Amylase Inhibition at 0.1 mM [1]: 29.5 ± 0.6 bc %
- IC50 [4]: > 250 µM
- IC50 [2]: 8.78 ± 0.09 µM
- IC50 [3]: 15.4 ± 0.42 µM

Compound: OCCc1ccc(O)cc1 [Compound 10, 4-hydroxyphenylethanol]
- α-Amylase Inhibition at 0.1 mM [1]: 16.2 ± 5.0 d %
- IC50 [2]: 3.41 ± 0.08 µM

- IC50 [4]: 13.66 ± 0.13 µM
- IC50 [2]: 10.1 ± 0.19 µM
Compound: O=C1O[C@H]([C@@H](O)CO)C(O)=C1O [L-(+)-ascorbic acid, reference compound]
